{"source": "patent US20170066795A1", "about": "“SOLID PRODRUG FORMS OF 2'-CHLORO-2'-METHYL URIDINE FOR HCV” (IDENIX PHARMACEUTICALS LLC, priority 2014, published 2017)", "key": {"genotype 2 or 3 HCV": {"system": "genotype 2 or 3 HCV", "experiment": "Example 3 Part II: Compound I QD x 7 days in treatment-naïve Genotype 2, 3, 4, 5 and 6 HCV-infected subjects, viral load (HCV RNA)", "assay_type": "in vivo", "conditions": "300 mg/day for 7 days", "description": "(§1) This part were a randomized, open-label, parallel group study in treatment-naïve, Genotype 2, 3, 4, 5 and 6 HCV-infected subjects. Thirty (30) subjects were randomized across the treatment arms specified below.\n(§2) Dosing, sampling, and analyses for Parts I and II were made according to Tables A and B.\nCompound I was provided as size 0, white, hard hydroxypropyl methylcellulose (HPMC) capsules for oral administration at 5 mg, 25 mg and 50 mg strengths. The same powder blend containing 33.3% weight/weight (w/w) Compound I, a diluent, and a disintegrant is used to fill the capsules for all dose strengths. Matching placebo capsules will also be provided. Storage conditions will be provided on the study drug container label.\nDosing occurred between approximately 08:00 AM and 10:00 AM on each dosing day. Water was permitted ad libitum except for 1 hour before and after dosing. Dosing was immediately followed by administration of 240 mL (8 oz.) of water. Meals and beverages served within 24 hours prior to and post dosing were xanthine-free and caffeine-free. Grapefruit and grapefruit juice were not allowed within 7 days before reporting to the clinic on Day −1 and through the end of the study."}, "[1]": {"experiment": "Example 3: tolerability (clinical and laboratory abnormalities) in HCV-infected subjects", "assay_type": "in vivo, human", "conditions": "50-300 mg QD x 7 days", "from_the_text": "This part was a randomized, double-blind, placebo-controlled, parallel group study in treatment-naïve, Genotype 1 HCV-infected subjects. Thirty (30) subjects were randomized across the treatment arms specified below.\nas §1, §2"}}, "data": [{"smiles": "CC(C)OC(=O)[C@@H](C)N[P@@](=O)(OC[C@H]1O[C@@H](n2ccc(=O)[nH]c2=O)[C@](C)(Cl)[C@@H]1O)Oc1ccccc1", "note": "[Compound I]", "values": [{"measurement": "response in genotype 2 versus genotype 3 HCV infection", "setting": "genotype 2 or 3 HCV", "value": "similar"}, {"measurement": "mean maximal viral load reduction", "setting": "genotype 2 or 3 HCV; 10 genotype 2 or 3 HCV-infected patients", "value": 4.3, "unit": "logs"}, {"measurement": "tolerability", "setting": "[1]", "value": "well-tolerated with no observed patterns of clinical or laboratory abnormalities"}]}]}
